The target of the test is T1, chimeric human H3 receptor (Homo sapiens, UniProt Q9Y5N1).
T1 construct: rat Galpha-i2 (Gnai2, rat); made in house; host or cells: Sf9 insect cells (baculovirus); P2 membranes
In words: Chimeric human H3 receptor screening GTP binding assay (inhibition of histamine-stimulated GTP-gamma35S binding, Example 8). Format: biochemical. Here is the method:
This Example illustrates a representative screening assay for evaluating inhibition of histamine-stimulated GTP-gamma^35S binding. Such GTP binding activity can be used to identify H3 antagonists and inverse agonists. A compound analyzed in this assay is referred to herein as a “test compound,” and the initial identification of antagonists and inverse agonists is performed using a test compound concentration of 4 μM.
Four independent baculoviral stocks (one directing the expression of the chimeric human H3 receptor and three directing the expression of each of the three subunits of a heterotrimeric G-protein) are used to infect a culture of Sƒ9 cells as described above. P2 membranes are prepared as described above, and are resuspended by Dounce homogenization (tight pestle) in GTP binding assay buffer (50 mM Tris pH 7.4, 120 mM NaCl, 5 mM MgCl2, 2 mM EGTA, 1 mg/ml BSA, 0.2 mg/ml bacitracin, 0.02 mg/ml aprotinin, 0.01 mg/ml saponin, 10 μM GDP) and added to assay tubes at a concentration of 35 μg protein/reaction tube. Non-radiolabeled test compounds are added to separate reactions at a concentration of 4 μM along with 1 μM histamine (agonist). Reactions are initiated by the addition of 125 pM GTP-gamma^35S with a final assay volume of 0.20 ml.
After a 60-min incubation at room temperature, reactions are terminated by vacuum filtration over GF/C filters (pre-soaked in 50 mM Tris pH 7.4, 120 mM NaCl plus 0.1% BSA) followed by washing with ice-cold buffer (50 mM Tris pH 7.4, 120 mM NaCl). The amount of receptor-bound (and thereby membrane-bound) GTP-gamma^35S is determined by measuring the bound radioactivity, preferably by liquid scintillation spectrometry of the washed filters. Non-specific binding is determined using 10 uM GTP-gammaS and typically represents less than 5 percent of total binding. After subtraction of non-specific binding, data is expressed as percent inhibition of 1 μM histamine signal.
Neutral antagonists are those test compounds that reduce the histamine-stimulated GTP binding activity towards, but not below, baseline levels. In contrast, in the absence of added histamine, inverse agonists reduce the GTP binding activity of the receptor-containing membranes below baseline. Any test compound that elevates GTP binding activity above baseline in the absence of added histamine in this assay is defined as having agonist activity.
In general terms: Binding of GTPγS marks nucleotide exchange on a G protein.

[1] abbreviates: 1 h, assay described in Example 8, symbol "!" in column headed Ki, read-out: Ki ("!": percent inhibition of agonist-induced GTP-gammaS binding to H3).
[2] abbreviates: symbol ! in Ki, test compound 4 μM, 1 μM histamine, read-out: percent inhibition of agonist-induced GTP-gammaS binding to H3.
Where [3] appears, read: 1 h, assay of Example 8, symbol "!" in column headed Ki, read-out: percent inhibition of agonist-induced GTP-gammaS binding to H3.

As usually defined, the inhibition is the drop in the measured response relative to a control, in per cent.

Like-named read-outs stand apart in the source and are kept apart here.

T1 sequence (Q9Y5N1 with tags, fused parts or gaps): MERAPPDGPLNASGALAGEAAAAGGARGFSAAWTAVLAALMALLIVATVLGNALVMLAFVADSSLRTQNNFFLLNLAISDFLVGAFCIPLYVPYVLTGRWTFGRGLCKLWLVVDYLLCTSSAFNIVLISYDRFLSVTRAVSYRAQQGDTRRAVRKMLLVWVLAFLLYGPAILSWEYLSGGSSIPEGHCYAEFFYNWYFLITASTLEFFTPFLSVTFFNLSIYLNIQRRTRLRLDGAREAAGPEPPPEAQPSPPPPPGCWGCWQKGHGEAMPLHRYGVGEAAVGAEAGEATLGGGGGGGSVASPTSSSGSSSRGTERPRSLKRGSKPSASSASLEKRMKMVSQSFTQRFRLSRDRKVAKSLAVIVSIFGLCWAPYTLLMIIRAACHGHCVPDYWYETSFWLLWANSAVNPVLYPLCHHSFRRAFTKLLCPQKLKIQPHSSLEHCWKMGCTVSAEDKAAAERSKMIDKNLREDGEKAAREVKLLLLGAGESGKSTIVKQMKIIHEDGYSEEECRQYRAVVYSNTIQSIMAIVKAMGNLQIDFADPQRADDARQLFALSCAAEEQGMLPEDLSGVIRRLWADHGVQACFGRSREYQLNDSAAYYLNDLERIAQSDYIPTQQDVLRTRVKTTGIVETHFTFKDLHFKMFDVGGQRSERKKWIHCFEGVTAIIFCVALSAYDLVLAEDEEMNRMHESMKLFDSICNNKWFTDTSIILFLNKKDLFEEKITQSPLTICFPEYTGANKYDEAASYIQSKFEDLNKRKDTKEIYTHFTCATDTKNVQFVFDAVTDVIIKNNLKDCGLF

`CCOc1ncccc1C(=O)N1CCc2cnc(N3CCN(C4CCC4)CC3)nc2CC1` [Compound 543, 2-(4-cyclobutylpiperazin-1-yl)-7-[(2-ethoxypyridin-3-yl)carbonyl]-6,7,8,9-tetrahydro-5H-pyrimido[4,5-d]azepine]: under setting [1], the inhibition at 4 µM was no less than 90%. As for `O=C(CC1CCCC1)N1CCc2c(ncnc2N2CCN(C3CCC3)CC2)C1` [Compound 47, 4-(4-cyclobutylpiperazin-1-yl)-7-(cyclopentylacetyl)-5,6,7,8-tetrahydropyrido[3,4-d]pyrimidine], under setting [2], the inhibition at 4 µM is no less than 90%.

Take `COc1ccc(C(=O)N2CCc3cnc(N4CCN(C5CCC5)CC4)nc3CC2)cc1` [Compound 191, 2-(4-cyclobutylpiperazin-1-yl)-7-(4-methoxybenzoyl)-6,7,8,9-tetrahydro-5H-pyrimido[4,5-d]azepine]: the inhibition at 4 µM under setting [3] was no less than 90%. For `COc1cccc(C(C)N2CCc3c(ncnc3N3CCN(C4CCC4)CC3)C2)c1OC` (stereo not drawn) [Compound 131, 4-(4-cyclobutylpiperazin-1-yl)-7-[1-(2,3-dimethoxyphenyl)ethyl]-5,6,7,8-tetrahydropyrido[3,4-d]pyrimidine], the inhibition at 4 µM under setting [2] was no less than 90%. With `CC(C)CCC(=O)N1CCc2cnc(N3CCN(C4CCC4)CC3)nc2CC1` [Compound 209, 2-(4-cyclobutylpiperazin-1-yl)-7-(4-methylpentanoyl)-6,7,8,9-tetrahydro-5H-pyrimido[4,5-d]azepine], the inhibition at 4 µM under setting [3] is no less than 90%. `O=C(/C=C/c1ccc(Cl)cc1Cl)N1CCc2cnc(N3CCN(C4CCC4)CC3)nc2CC1` [Compound 581, 2-(4-cyclobutylpiperazin-1-yl)-7-[(2E)-3-(2,4-dichlorophenyl)prop-2-enoyl]-6,7,8,9-tetrahydro-5H-pyrimido[4,5-d]azepine]: the inhibition at 4 µM under setting [3] is no less than 90%. In the case of `COCCC(=O)N1CCc2c(ncnc2N2CCN(C3CCC3)CC2)C1` [Compound 51, 4-(4-cyclobutylpiperazin-1-yl)-7-(3-methoxypropanoyl)-5,6,7,8-tetrahydropyrido[3,4-d]pyrimidine], under setting [2], the inhibition at 4 µM was no less than 90%. For `Cc1ccc(/C=C/C(=O)N2CCc3cnc(N4CCN(C5CCC5)CC4)nc3CC2)cc1` [Compound 557, 2-(4-cyclobutylpiperazin-1-yl)-7-[(2E)-3-(4-methylphenyl)prop-2-enoyl]-6,7,8,9-tetrahydro-5H-pyrimido[4,5-d]azepine], under setting [1], the inhibition at 4 µM was no less than 90%. Regarding `COc1cccc(CN2CCc3c(ncnc3N3CCN(C4CCC4)CC3)C2)c1OC` [Compound 94, 4-(4-cyclobutylpiperazin-1-yl)-7-(2,3-dimethoxybenzyl)-5,6,7,8-tetrahydropyrido[3,4-d]pyrimidine], under setting [2], the inhibition at 4 µM is no less than 90%. For the compound `CC(c1ccccc1F)N1CCc2c(ncnc2N2CCN(C3CCC3)CC2)C1` (stereo not drawn) [Compound 102, 4-(4-cyclobutylpiperazin-1-yl)-7-[1-(2-fluorophenyl)ethyl]-5,6,7,8-tetrahydropyrido[3,4-d]pyrimidine], the inhibition at 4 µM under setting [2] was no less than 90%. The same measure, in the same setting: the value for `COc1ccc(OC)c(C(C)N2CCc3c(ncnc3N3CCN(C4CCC4)CC3)C2)c1` (stereo not drawn) [Compound 132, 4-(4-cyclobutylpiperazin-1-yl)-7-[1-(2,5-dimethoxyphenyl)ethyl]-5,6,7,8-tetrahydropyrido[3,4-d]pyrimidine] was no less than 90%. For `CSc1sc(C(=O)N2CCc3cnc(N4CCN(C5CCC5)CC4)nc3CC2)c2c1C=CCC2` [Compound 458, 2-(4-cyclobutylpiperazin-1-yl)-7-{[3-(methylthio)-6,7-dihydro-2-benzothien-1-yl]carbonyl}-6,7,8,9-tetrahydro-5H-pyrimido[4,5-d]azepine], under setting [1], the inhibition at 4 µM is no less than 90%. On to `c1ccc2nc(CN3CCc4cnc(N5CCN(C6CCC6)CC5)nc4CC3)ccc2c1` [Compound 259, 2-(4-cyclobutylpiperazin-1-yl)-7-(quinolin-2-ylmethyl)-6,7,8,9-tetrahydro-5H-pyrimido[4,5-d]azepine], for which the inhibition at 4 µM under setting [3] is no less than 90%. Still for that read-out and setting: the value for `O=C(C1CCCCCC1)N1CCc2cnc(N3CCN(C4CCC4)CC3)nc2CC1` [Compound 219, 2-(4-cyclobutylpiperazin-1-yl)-7-(cycloheptylcarbonyl)-6,7,8,9-tetrahydro-5H-pyrimido[4,5-d]azepine] was no less than 90%. As for `Cc1ccc(OCC(=O)N2CCc3cnc(N4CCN(C5CCC5)CC4)nc3CC2)c(C)c1` [Compound 333, 2-(4-cyclobutylpiperazin-1-yl)-7-[(2,4-dimethylphenoxy)acetyl]-6,7,8,9-tetrahydro-5H-pyrimido[4,5-d]azepine], the inhibition at 4 µM under setting [3] was no less than 90%. `O=C(c1ccncc1)N1CCc2cnc(N3CCN(C4CCC4)CC3)nc2CC1` [Compound 487, 2-(4-cyclobutylpiperazin-1-yl)-7-isonicotinoyl-6,7,8,9-tetrahydro-5H-pyrimido[4,5-d]azepine]: the inhibition at 4 µM under setting [1] is no less than 90%.

On to `COc1cc(Cl)ccc1OCC(=O)N1CCc2cnc(N3CCN(C4CCC4)CC3)nc2CC1` [Compound 318, 7-[(4-chloro-2-methoxyphenoxy)acetyl]-2-(4-cyclobutylpiperazin-1-yl)-6,7,8,9-tetrahydro-5H-pyrimido[4,5-d]azepine], for which the inhibition at 4 µM under setting [3] is no less than 90%.

As to `O=C(c1ccccc1)N1CCc2c(ncnc2N2CCN(C3CCC3)CC2)C1` [Compound 22, 7-benzoyl-4-(4-cyclobutylpiperazin-1-yl)-5,6,7,8-tetrahydropyrido[3,4-d]pyrimidine], the inhibition at 4 µM under setting [2] was no less than 90%. For the compound `CCCc1c(C(=O)N2CCc3cnc(N4CCN(C5CCC5)CC4)nc3CC2)cnn1-c1ccccc1` [Compound 508, 2-(4-cyclobutylpiperazin-1-yl)-7-[(1-phenyl-5-propyl-1H-pyrazol-4-yl)carbonyl]-6,7,8,9-tetrahydro-5H-pyrimido[4,5-d]azepine], the inhibition at 4 µM under setting [1] was no less than 90%. Turning to `O=C(Cc1cc(Cl)ccc1Br)N1CCc2cnc(N3CCN(C4CCC4)CC3)nc2CC1` [Compound 301, 7-[(2-bromo-5-chlorophenyl)acetyl]-2-(4-cyclobutylpiperazin-1-yl)-6,7,8,9-tetrahydro-5H-pyrimido[4,5-d]azepine], the inhibition at 4 µM under setting [3] is no less than 90%.

For the compound `O=C(Cc1cccc(C(F)(F)F)c1)N1CCc2cnc(N3CCN(C4CCC4)CC3)nc2CC1` [Compound 288, 2-(4-cyclobutylpiperazin-1-yl)-7-{[3-(trifluoromethyl)phenyl]acetyl}-6,7,8,9-tetrahydro-5H-pyrimido[4,5-d]azepine], the inhibition at 4 µM under setting [3] is no less than 90%. For `CCCCC(=O)N1CCc2c(ncnc2N2CCN(C3CCC3)CC2)C1` [Compound 44, 4-(4-cyclobutylpiperazin-1-yl)-7-pentanoyl-5,6,7,8-tetrahydropyrido[3,4-d]pyrimidine], the inhibition at 4 µM under setting [2] was no less than 90%. `O=C(c1cccnc1Sc1ccccc1)N1CCc2cnc(N3CCN(C4CCC4)CC3)nc2CC1` [Compound 496, 2-(4-cyclobutylpiperazin-1-yl)-7-{[2-(phenylthio)pyridin-3-yl]carbonyl}-6,7,8,9-tetrahydro-5H-pyrimido[4,5-d]azepine]: the inhibition at 4 µM under setting [1] is no less than 90%. As for `CCC(C(=O)N1CCc2cnc(N3CCN(C4CCC4)CC3)nc2CC1)c1ccccc1` (stereo not drawn) [Compound 348, 2-(4-cyclobutylpiperazin-1-yl)-7-(2-phenylbutanoyl)-6,7,8,9-tetrahydro-5H-pyrimido[4,5-d]azepine], under setting [3], the inhibition at 4 µM is no less than 90%. In the case of `O=C(Cc1ccccc1OC(F)(F)F)N1CCc2cnc(N3CCN(C4CCC4)CC3)nc2CC1` [Compound 313, 2-(4-cyclobutylpiperazin-1-yl)-7-{[2-(trifluoromethoxy)phenyl]acetyl}-6,7,8,9-tetrahydro-5H-pyrimido[4,5-d]azepine], the inhibition at 4 µM under setting [3] was no less than 90%.

In the case of `c1cncc(CN2CCc3nc(N4CCN(C5CCC5)CC4)ncc3C2)c1` [Compound 620, 2-(4-cyclobutylpiperazin-1-yl)-6-(pyridin-3-ylmethyl)-5,6,7,8-tetrahydropyrido[4,3-d]pyrimidine], the inhibition at 4 µM under setting [2] was no less than 90%. With `CCCn1c(C(=O)N2CCc3cnc(N4CCN(C5CCC5)CC4)nc3CC2)cc2ccccc21` [Compound 463, 2-(4-cyclobutylpiperazin-1-yl)-7-[(1-propyl-1H-indol-2-yl)carbonyl]-6,7,8,9-tetrahydro-5H-pyrimido[4,5-d]azepine], the inhibition at 4 µM under setting [1] is no less than 90%.
